Data on nine compounds can be found in article PMC6789456, “Ursolic Acid Derivatives as Potential Agents Against Acanthamoeba Spp” (Pathogens, 2019).

Molecules are shown by their SMILES.

The subject of series [1] is Acanthamoeba griffini. The series can be described thus: In vitro effect against the trophozoite stage, Alamar Blue assay. It counts as cell-based. The note with it: 96 h, trophozoites, mean ± SD. The procedure:
(§1) The anti-Acanthamoeba activity of molecules was evaluated against the Acanthamoeba castellanii Neff (ATCC 30010) type strain from the American Type Culture Collection and Acanthamoeba griffini obtained in previous studies. Those strains were grown axenically in Peptone Yeast Glucose (PYG) medium (0.75% (w/v) proteose peptone, 0.75% (w/v) yeast extract, and 1.5% (w/v) glucose) containing 40 μg of gentamicin ml−1 (Biochrom AG, Cultek, Granollers, Barcelona, Spain).
(§2) The anti-Acanthamoeba activities of the compounds were determined by the Alamar Blue assay as previously described. Briefly, Acanthamoeba strains were seeded in duplicate on a 96-well microtiter plate with 50 μL from a stock solution of 10^4 cells mL^−1. Amoebae were allowed to adhere for 15 min and 50 μL of serial dilution series of the eye drop solution was added. Finally, the Alamar Blue assay reagent (Bioresource, Europe, Nivelles, Belgium) was added into each well at an amount equal to 10% of the medium volume. The plates were then incubated for 96 h at 28 °C with a slight agitation and the emitted fluorescence was measured with an Enspire microplate reader (PerkinElmer, Massachusetts, USA) at 570/585 nm.

A short description of series [2]: Cytotoxicity, Alamar Blue assay. It counts as cell-based. The note with it: mouse, J774.A1 macrophage cell line (ATCC TIB-67), J774.A1, 24 h, mean ± SD, >100 if inhibition did not reach 50% at the highest concentration, read-out: Murine Macrophages CC50. On the procedure:
Cytotoxicity of the selected compounds was evaluated after 24 h incubation of murine macrophage J774.A1 cell line (ATCC # TIB-67) with different concentrations of the tested compounds at 37 °C in a 5% CO2 humidified incubator. The viability of the macrophages was determined with the Alamar Blue assay as previously described.

Series [3] deals with Acanthamoeba castellanii Neff. Nature of the series: In vitro effect against the trophozoite stage, Alamar Blue assay. It counts as cell-based. Particulars: for IC90: concentration used in the double-stain assay, A. castellanii Neff trophozoites; for IC50: trophozoites, Alamar blue, 96 h, mean ± SD. On the procedure:
as §1, §2

The test system of series [4] is Acanthamoeba spp. cysts. Nature of the series: In vitro effect against the cyst stage, Alamar Blue assay. It counts as cell-based. Particulars: both strains, viability of cysts. The procedure: The cysticidal activity was determined by the Alamar Blue assay at 144 h and confirmed visually by inverted microscopy. Cysts of both strains were prepared as described by Lorenzo-Morales et al. (2008). Briefly, trophozoite were transferred from PYG medium based cultures (trophozoite medium) to Neff´s encystment medium (NEM; 0.1 M KCl, 8 mM MgSO4·7H2O, 0.4 mM CaCl2·2H2O, 1 mM NaHCO3, and 20 mM ammediol (2-amino-2-methyl-1,3-propanediol; Sigma Aldrich Chemistry Ltd., Madrid, Spain), pH 8.8, at 25 °C) and were cultured in this medium with gentle shaking for a week in order to obtain mature cysts. After that, mature cysts were harvested and washed twice using the PYG medium.
A serial dilution of the tested molecules was made in PYG. The in vitro susceptibility assay was performed in sterile 96-well microtiter plates (Corning™). To these wells the drug concentration to be tested and 5 × 10^4 mature cysts of Acanthamoeba/ml were added. The final volume was 100 μL in each well. After 7 days of incubation with the drugs, the plate was centrifuged at 3000 rpm for 10 min. […] Finally, 10 μL of the Alamar Blue assay reagent (Biosource, Europe, Nivelles, Belgium) was placed into each well, and the plates were then incubated for 144 h at 28 °C with slight agitation and the emitted fluorescence was periodically examined with an Enspire microplate reader (PerkinElmer, Waltham, MA, USA) at 570/585 nm.

For series [5], the system named is Acanthamoeba castellanii Neff trophozoite. The series can be described thus: Double-stain assay (Hoechst 33342/PI) for programmed cell death. It counts as cell-based. Particulars: treated with IC90, 24 h; for Propidium Iodide (PI) stain: data not shown. The procedure: A double-stain apoptosis detection kit (Hoechst 33342/PI; GenScript, Piscataway, NJ, USA) and an inverted confocal microscope (Leica DMI 4000B) were used. The experiment was carried out by following the manufacturer’s recommendations, and 10^5 cells/well were incubated in a 24-well plate for 24 h with the previously calculated IC90. The double-staining pattern allows the identification of three groups in a cellular population: Live cells will show only a low level of fluorescence, cells undergoing PCD will show a higher level of blue fluorescence (as chromatin condenses), and dead cells will show low-blue and high-red fluorescence (as the propidium iodide stain enters the nucleus).

The test system of series [6] is Acanthamoeba castellanii Neff. Nature of the series: Mitochondrial membrane potential, JC-1. It counts as cell-based. Particulars: treated with IC90, 24 h; for decrease of mitochondrial membrane potential (ΔΨm): ratio of fluorescence 590/530 nm. On the procedure: The collapse of an electrochemical gradient across the mitochondrial membrane during apoptosis was detected with the JC-1 mitochondrial membrane potential detection kit (Cell Technology). After being treated with IC90 of the test solution for 24 h, the cells were centrifuged (1000 r.p.m. × 10 min) and resuspended in JC-1 buffer. After that, 100 µL of each treated culture was added to a black 96 well plate (PerkinElmer) then 10 µL of JC-1 was added and incubated at 26 °C for 30 min. Analysis for the mean green and red fluorescence intensity was done using an Enspire microplate reader (PerkinElmer, Waltham, MA, USA) after 30 minutes. As well as images were taken on an EVOS fluorescence microscope from the Advanced Microscopy Group (AMG). The staining pattern allows the identification of two groups in a cellular population: Live cells will show only red fluorescence; and cells with low mitochondrial potential, (undergoing PCD) will show a higher level of green and red fluorescence.

Series [7] deals with Acanthamoeba Neff. Nature of the series: Intracellular ROS production, CellROX Deep Red staining. The note with it: treated with IC90, 24 h, vs negative control. It counts as cell-based, Acanthamoeba castellanii. On the procedure:
The generation of intracellular ROS was detected using the CellROX® Deep Red fluorescent probe (Invitrogen). The cells were treated with IC90 of both 5 and 7 for 24 h and exposed to CellROX® Deep Red (5 μM, 30 min) at 26 °C in the dark.

The nature of series [8]: Solubility (comparison in words). It counts as physicochemical. The note with it: compared to the origin compound 1 (ursolic acid).
For series [9], the system named is murine macrophage J774.A1 cell line. The series can be described thus: Cytotoxicity, Alamar Blue assay. It counts as cell-based. Particulars: 50 µM, J774A.1, inverted microscopy, compared to 1.

In [1] (Acanthamoeba griffini), `[H]/N=C(\N/C(=N/[H])NCCCCCCNC(=N)NC(=N)Nc1ccc(Cl)cc1)Nc1ccc(Cl)cc1` [Chlorhexidine, reference compound] returned an IC50 of 3.73 ± 0.98 µM. Besides, the CC50 at 24 h in series [2] is 7.4 ± 0.39 µM.
For `COC(=O)[C@]12CC[C@@H](C)[C@H](C)C1C1=CCC3[C@@]4(C)CC[C@H](OC)C(C)(C)C4CC[C@@]3(C)[C@]1(C)CC2` (some centres unmarked) [Compound 5], in series [3], it took 86 µM to reach the 90% level (IC90) and 22.7 ± 1.4 µM corresponded to half-maximal inhibition (IC50). Besides, the IC50 in series [1] (Acanthamoeba griffini) is 6.9 ± 1.5 µM. In series [2], the CC50 at 24 h was greater than 100 µM. In addition, the cysticidal effect result in series [4] is reported as “dose-dependent cysticidal effect”. In series [5], the “chromatin condensation (Hoechst 33342 stain)” value is “induced chromatin condensation” and the “Propidium Iodide (PI) stain” value was “did not stain”. Besides, in [6], the “mitochondrial membrane potential, JC-1 imaging” value is “depolarize the mitochondrial membrane potential” and the “decrease of mitochondrial membrane potential (ΔΨm)” value was found to be 49.0%. Besides, the “reactive oxygen species (ROS) levels” value in series [7] is “increased”. For the same compound, in series [8], the solubility entry is given as “higher than the origin compound 1”. The “effect on morphology of murine macrophages” value in [9] is “did not affect the morphology”.
In the case of `COC(=O)[C@]12CC[C@@H](C)[C@H](C)C1C1=CCC3[C@@]4(C)CC[C@H](OC(C)=O)C(C)(C)C4CC[C@@]3(C)[C@]1(C)CC2` (some centres unmarked) [Compound 6], the half-inhibitory concentration (IC50) in [3] turned out to be 37.1 ± 1.3 µM; in series [1] (Acanthamoeba griffini), 9.1 ± 1 µM. Further, in [2], the CC50 at 24 h is greater than 100 µM.
The corresponding values for `C[C@@H]1CC[C@]2(C(=O)O)CC[C@]3(C)C(=CCC4[C@@]5(C)CCC(=O)C(C)(C)C5CC[C@]43C)C2[C@H]1C` (some centres unmarked) [Compound 3] are 34.9 ± 1.5 µM, 10.2 ± 0.5 µM and greater than 100 µM.
As for `COC(=O)[C@]12CC[C@@H](C)[C@H](C)C1C1=CCC3[C@@]4(C)CC[C@H](OC(=O)c5ccccc5)C(C)(C)C4CC[C@@]3(C)[C@]1(C)CC2` (some centres unmarked) [Compound 8], the concentration for half-maximal inhibition (IC50) stood at 33.5 ± 2.1 µM in series [3] and 11.5 ± 0.8 µM in series [1] (Acanthamoeba griffini). In [2], the CC50 at 24 h was greater than 100 µM.
Taken in the same sequence, the figures for `COC(=O)[C@]12CC[C@@H](C)[C@H](C)C1C1=CCC3[C@@]4(C)CC[C@H](O)C(C)(C)C4CC[C@@]3(C)[C@]1(C)CC2` (some centres unmarked) [Compound 4] were 21.9 ± 0.9 µM, 8.7 ± 0.4 µM and 26.3 ± 1.7 µM.
In [3], `COC(=O)[C@]12CC[C@@H](C)[C@H](C)C1C1=CCC3[C@@]4(C)CC[C@H](OC(=O)c5ccc([N+](=O)[O-])cc5)C(C)(C)C4CC[C@@]3(C)[C@]1(C)CC2` (stereo partly drawn) [Compound 7, 3β-(p-nitrobenzoyloxy)-urs-12-en-28-oic acid methyl ester] registered a concentration for an effect of 90% (IC90) of 75 µM and an IC50 of 21.4 ± 1.3 µM. In series [1] (Acanthamoeba griffini), this compound returned an IC50 of 6.7 ± 1.8 µM. Besides, the CC50 at 24 h in series [2] was greater than 100 µM. The cysticidal effect entry in [4] is recorded as “dose-dependent cysticidal effect”. In addition, in series [5], the “chromatin condensation (Hoechst 33342 stain)” value is “induced chromatin condensation” and the “Propidium Iodide (PI) stain” value is “did not stain”. In series [6], the “mitochondrial membrane potential, JC-1 imaging” value is “depolarize the mitochondrial membrane potential” and the “decrease of mitochondrial membrane potential (ΔΨm)” value is 35.0%. The “reactive oxygen species (ROS) levels” value in series [7] was “increased”. Besides, the solubility entry in [8] is “higher than the origin compound 1”.
Consider `CC(=O)O[C@H]1CC[C@@]2(C)C(CC[C@]3(C)C2CC=C2C4[C@@H](C)[C@H](C)CC[C@]4(C(=O)O)CC[C@]23C)C1(C)C` (some centres unmarked) [Compound 2], for which the half-inhibitory concentration (IC50) in [3] was found to be 24.2 ± 0.3 µM; in series [1] (Acanthamoeba griffini) it was 11.1 ± 0.8 µM. In addition, the CC50 at 24 h in series [2] was found to be 93.2 ± 7.2 µM.
In the case of `C[C@H]1[C@H](C)CC[C@]2(C(=O)O)CC[C@]3(C)C(=CC[C@@H]4[C@@]5(C)CC[C@H](O)C(C)(C)[C@@H]5CC[C@]43C)[C@H]12` [Compound 1, Ursolic acid], the results for the IC50 in series [3], in [1] (Acanthamoeba griffini) and in series [1] were 40 ± 2.7 µM, 15.3 µM and 15.2 ± 0.3 µM, respectively. The half-maximal cytotoxic concentration (CC50) at 24 h in [2] was found to be 17.7 ± 3.3 µM.
